Tests used:
Factor Xa = biological target: T1, Factor Xa (Homo sapiens, UniProt P00742); assay: Dose response assay for protease inhibitors: Factor Xa; format: biochemical; settings: ratio versus Factor XIa
T1 construct: Factor Xa; 0.2 μM in 50% glycerol (9.2 μg/mL)
Method: (§1) • Assay buffer: 20 mM Hepes, pH 7.4; 150 mM NaCl; 0.02% Tween 20 • Compounds: 10 mM stocks in DMSO • Substrate: 20 mM Glp-Pro-Arg-AMC, 25 mg/2.3 mL H2O (store at +4° C.) [Factor XIa, thrombin, and trypsin] • 20 mM Pro-Phe-Arg-AMC (Bachem I-1295), 25 mg/2.2 mL H2O or Boc-Leu-Gly-Arg-AMC (Bachem I-1105), 25 mg/2.07 mL H2O (store at +4° C.) [Factor Xa] • Enzyme: Factor XIa; 0.25 M in 50% glycerol (20 μg/mL) • Trypsin; 0.2 μM in 50% glycerol (4.8 μg/mL) • Thrombin; 0.2 μM in 50% glycerol (7.34 μg/mL) • Factor Xa; 0.2 μM in 50% glycerol (9.2 μg/mL)
(§2) • 1. Dilute the substrate to 100 μM in assay buffer (30 μL/6 mL). The enzyme is diluted to 0.5 nM just prior to use (12 L/6 mL for Factor XIa; 15 μL/6 mL for all of the rest.) • 2. Pipette 50 μL of substrate into each well of the 96 well (12×8) microtiter plate. (Column 1 is used as the 100% activity control and receives no compound, and Column 12 is the blank and receives no enzyme.) Add an additional 46 μL to column 2. • 3. Pipette 4 μL of each compound into the appropriate well in column 2 of the plate (unknowns assayed in triplicate, standard assayed in duplicate). The final compound concentration will be 1/50th of the stock. • 4. Serially two-fold dilute the compound by mixing the sample in column 2, removing 50 μL to the next well (column 3), mix and remove to column 4, etc. until column 11. After mixing column 11, remove 50 μL and discard. • 5. Pipette 50 μL of buffer into column 12. Initiate the reaction by adding 50 μL of enzyme solution to each well of columns 1-11 as rapidly as possible. • 6. Read the plate in a spectrophotometer (SpectraMax) at 30° C., wherein each well is measured every 60 s for 30 min. For Factor Xa assays, each well is measured every 1 min for a total of 60 min. • 7. For Factor XIa assays, the compounds are assayed, in duplicate, at 3 different starting concentrations, 20, 2, and 0.2 μM; 1:10, 1:100, and 1:1000 dilution of 10 mM stock or at 2, 0.2, and 0.02 μM; 1:100, 1:1000, and 1:10,000 dilution of 10 mM stock. Data for each concentration are combined for graphing and data fitting. • 8. Data can be used both for estimation of IC50 and for estimation of Kon.

Thrombin = biological target: T2, Thrombin (Homo sapiens, UniProt P00734); assay: Dose response assay for protease inhibitors: thrombin; format: biochemical; settings: ratio versus Factor XIa
T2 construct: Thrombin; 0.2 μM in 50% glycerol (7.34 μg/mL)
Method: as §1, §2

human Factor XIa = human Factor XIa (Homo sapiens, UniProt P03951); assay: Factor XIa enzyme inhibition assay (dose response, fluorogenic AMC substrate); format: biochemical; parameters: Enzyme: Factor XIa; settings: purified enzyme; substrate 50 μM, enzyme 0.25 nM; read-out: hFXIa IC50
Method: as §1, §2
Potential inhibitors of Factor XIa were evaluated using the following assay.
PyroGlu-Pro-Arg-7-methylaminocourin (AMC), available from CPC Scientific, Inc., is based on the substrate pyro-Glu-Pro-Arg-pNA (S-2366), available from Diapharma Group, Inc. (Columbus, Ohio), wherein the p-nitroanaline group is replaced with 7-methylaminocoumarin (AMC).
The final concentration of the substrate in the assay was 50 μM, and the final concentration of the enzyme was 0.25 nM. Inhibitors were tested by serial dilution over an appropriate range to yield a dose response curve for determination of the inhibitors' IC50 value. The assay mixture was read every minute for 30 minutes in order to generate progress curves. The plates were read in a Spectramax m5 Multimode Plate Reader (Molecular Devices LLC, Sunnyvale, Calif.). Dose response curves were fit to Equation 1 below in which A is the maximum inhibition, B is the minimum inhibition, C is the IC50, and D is the Hill coefficient.
Y=[(A−B)/(1+(X/C)^D)]+B (Equation 1)

Trypsin = biological target: T3, Trypsin (Bos taurus, UniProt P00760); assay: Dose response assay for protease inhibitors: trypsin; format: biochemical; settings: ratio versus Factor XIa
T3 construct: gene PRSS1
T3 sequence (P00760 24-246): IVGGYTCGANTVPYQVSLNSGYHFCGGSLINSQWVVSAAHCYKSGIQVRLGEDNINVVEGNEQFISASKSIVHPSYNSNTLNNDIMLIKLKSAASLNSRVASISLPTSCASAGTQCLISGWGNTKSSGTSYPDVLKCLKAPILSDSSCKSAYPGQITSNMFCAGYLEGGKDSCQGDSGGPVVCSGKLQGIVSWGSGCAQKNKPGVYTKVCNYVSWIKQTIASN
Method: as §1, §2

[1] = Caco-2 cell permeability assay (A-B and B-A); format: in vitro ADME; settings: human; for Papp A→B at 60 min, 10 μM: A-B direction; for Papp B→A at 40 min, 10 μM: B-A direction
Method: The following procedure was used to determine the ability of a test compound to cross Caco-2 cells (human intestinal epithelial cells derived from a colorectal adenocarcinoma). The cells were seeded at 1×10^5 cells/cm^2 in 96-well Multiscreen™ plates (Millipore). Permeability assays were performed with the cells at days 21-25 post-seeding. Cells are typically used for 15 consecutive passages in culture.
This assay can be performed in either the apical to basolateral (A−B) or basolateral to apical (B−A) direction. The test compound was prepared at 10 μM in HBSS-MES (pH 6.5) or HBSS-HEPES (pH 7.4) with a final DMSO concentration of 1%. The working solution was then centrifuged and the supernatant added to the donor side. The assay plate was incubated at 37° C. with gentle shaking for 60 min or 40 min for the A−B or B−A assay, respectively. Samples were aliquoted from the donor side at time zero and the end point, and from the receiver side at the end point.
Reference compounds, propranolol (highly permeable), labetalol (moderately permeable), ranitidine (poorly permeable), and colchicine (P-glycoprotein substrate) were included in each assay.
Samples are analyzed by HPLC-MS/MS using selected reaction monitoring. The HPLC system consists of a binary LC pump with autosampler, a C-18 column, and a gradient.
The apparent permeability coefficient (Papp) of the test compound (Equation 2) and its recovery (Equation 3) are calculated as follows: […]
wherein A is the surface area of the cell monolayer (0.11 cm^2), C is concentration of the test compound expressed as peak area, D denotes donor, and R is receiver. “0”, “mid,” and “end” denote time at zero, mid-point, and end of the incubation, respectively. At is the incubation time. V is the volume of the donor or receiver.
This is most likely due to non-specific binding or degradation.

T1 sequence (P00742 235-488 limits assumed): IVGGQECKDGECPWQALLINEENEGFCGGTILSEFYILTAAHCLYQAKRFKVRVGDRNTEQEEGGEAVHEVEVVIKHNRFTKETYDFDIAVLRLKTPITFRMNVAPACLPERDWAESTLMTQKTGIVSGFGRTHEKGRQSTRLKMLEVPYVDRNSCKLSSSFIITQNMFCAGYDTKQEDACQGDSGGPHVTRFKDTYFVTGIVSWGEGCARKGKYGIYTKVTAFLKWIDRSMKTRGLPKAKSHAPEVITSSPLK
T1 sequence (P00742 41-179 partner limits assumed): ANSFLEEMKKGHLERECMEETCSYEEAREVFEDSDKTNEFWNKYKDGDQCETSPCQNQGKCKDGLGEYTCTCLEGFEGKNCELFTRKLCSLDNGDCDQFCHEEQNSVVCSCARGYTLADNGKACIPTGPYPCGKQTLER
Chain of human Factor XIa (P03951 388-625 limits assumed): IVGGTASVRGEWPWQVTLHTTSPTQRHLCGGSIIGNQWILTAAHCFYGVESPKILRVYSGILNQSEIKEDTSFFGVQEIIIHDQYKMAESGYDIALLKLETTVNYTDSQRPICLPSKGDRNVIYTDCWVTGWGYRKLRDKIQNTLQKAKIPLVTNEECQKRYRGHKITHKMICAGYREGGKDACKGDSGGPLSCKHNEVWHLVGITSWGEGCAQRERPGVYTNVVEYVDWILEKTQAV
Chain of human Factor XIa (P03951 19-387 partner limits assumed): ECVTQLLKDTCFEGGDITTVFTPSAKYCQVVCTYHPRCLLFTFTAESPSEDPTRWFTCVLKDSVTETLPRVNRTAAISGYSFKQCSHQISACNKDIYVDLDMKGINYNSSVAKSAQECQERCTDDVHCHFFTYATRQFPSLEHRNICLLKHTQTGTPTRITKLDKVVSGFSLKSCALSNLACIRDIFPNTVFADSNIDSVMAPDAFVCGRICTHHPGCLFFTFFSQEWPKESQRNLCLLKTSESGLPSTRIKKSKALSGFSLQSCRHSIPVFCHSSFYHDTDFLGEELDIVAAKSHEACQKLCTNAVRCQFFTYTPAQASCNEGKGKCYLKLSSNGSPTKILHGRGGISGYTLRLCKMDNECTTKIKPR

| SMILES | FXa/FXIa (selectivity ratio) (Factor Xa) | Ratio: Thrombin/FXIa (Thrombin) | IC50 (human Factor XIa) | Ratio: Trypsin/FXIa (Trypsin) | Papp A→B at 60 min, 10 μM [1] | Papp B→A at 40 min, 10 μM [1] |
| --- | --- | --- | --- | --- | --- | --- |
| CC[C@@H](NC(=O)N1C(=O)[C@H](Cc2ccnc(N)c2)[C@H]1C(=O)N(C)c1ccncc1)c1ccc(C)nc1 [Compound 104] | I (“I” indicates >500) | H (“H” indicates 101-1000) | < 0.01 µM | H (“H” indicates 101-1000) |  |  |
| CC[C@@H](NC(=O)N1C(=O)[C@H](Cc2cc(C)nc(N)c2)[C@H]1C(=O)N(C)c1ncccn1)c1cccc(Cl)c1 [Compound 135] | I (“I” indicates >500) | H (“H” indicates 101-1000) | < 0.01 µM | G (“G” indicates 1-100) |  |  |
| CC[C@@H](NC(=O)N1C(=O)[C@H](Cc2ccnc(N)c2)[C@H]1C(=O)N(C)c1cccc(C)c1)c1cccc(Cl)c1 [Compound 117] | H (“H” indicates 101-1000) | G (“G” indicates 1-100) | < 0.01 µM | G (“G” indicates 1-100) |  |  |
| CC[C@@H](NC(=O)N1C(=O)[C@H](Cc2ccnc(N)c2)[C@H]1C(=O)N(C)c1cccc(F)c1)C1CCCCC1 [Compound 29] | I (“I” indicates >500) | H (“H” indicates 101-1000) | < 0.01 µM | G (“G” indicates 1-100) |  |  |
| CCN(C(=O)[C@@H]1[C@@H](Cc2ccnc(N)c2)C(=O)N1C(=O)N[C@@H](C1CCCCC1)C(F)(F)F)c1ncccn1 [Compound 38] |  |  | < 0.01 µM |  | ≤ 100 nm/s | ≤ 100 nm/s |
| CC[C@@H](NC(=O)N1C(=O)[C@H](Cc2ccnc(N)c2)[C@H]1C(=O)N(C)c1cccc(F)c1)c1cccc(Cl)c1 [Compound 116] | H (“H” indicates 101-1000) | H (“H” indicates 101-1000) | < 0.01 µM | G (“G” indicates 1-100) |  |  |
| CCN(C(=O)[C@@H]1[C@@H](Cc2ccnc(N)c2)C(=O)N1C(=O)N[C@@H](C1CC1)C(F)(F)F)c1ncccn1 [Compound 79] | H (“H” indicates 101-1000) | H (“H” indicates 101-1000) | 0.01 to 0.1 µM |  |  |  |
| CC[C@@H](NC(=O)N1C(=O)[C@H](Cc2ccnc(N)c2)[C@H]1C(=O)N(C)c1ccncc1)c1ccccc1C [Compound 96] | I (“I” indicates >500) |  | 0.01 to 0.1 µM |  |  |  |
| CC[C@@H](NC(=O)N1C(=O)[C@H](Cc2ccnc(N)c2)[C@H]1C(=O)N(C)c1ccnc(C)c1)c1cccc(Cl)c1 [Compound 124] | H (“H” indicates 101-1000) | G (“G” indicates 1-100) | < 0.01 µM | G (“G” indicates 1-100) |  |  |
| CC(C)[C@@H](NC(=O)N1C(=O)[C@H](Cc2ccnc(N)c2)[C@H]1C(=O)N(C)c1ccccc1)C1CCCCC1 [Compound 35] | I (“I” indicates >500) | H (“H” indicates 101-1000) | < 0.01 µM | G (“G” indicates 1-100) |  |  |
| CC[C@@H](NC(=O)N1C(=O)[C@H](Cc2ccnc(N)c2)[C@H]1C(=O)N(C)c1cccc(Cl)c1)c1cccc(Cl)c1 [Compound 118] | H (“H” indicates 101-1000) | G (“G” indicates 1-100) | < 0.01 µM | G (“G” indicates 1-100) |  |  |
| CCN(C(=O)[C@@H]1[C@@H](Cc2ccnc(N)c2)C(=O)N1C(=O)N[C@@H](C1CCCCC1)C1CC1)c1ccccc1 [Compound 55] | I (“I” indicates >500) | H (“H” indicates 101-1000) | < 0.01 µM | G (“G” indicates 1-100) |  |  |
| CC[C@@H](NC(=O)N1C(=O)[C@H](Cc2ccnc(N)c2)[C@H]1C(=O)N(C)c1ccccc1)c1ccccc1 [Compound 40] | H (“H” indicates 101-1000) | H (“H” indicates 101-1000) | < 0.01 µM | G (“G” indicates 1-100) |  |  |
| CCN(C(=O)[C@@H]1[C@@H](Cc2ccnc(N)c2)C(=O)N1C(=O)N[C@@H](C1CCCCC1)C1CC1)c1ncccn1 [Compound 54] |  |  | < 0.01 µM |  | 110 to 300 nm/s | ≤ 100 nm/s |
| CN(C(=O)[C@@H]1[C@@H](Cc2ccnc(N)c2)C(=O)N1C(=O)N[C@@H](C1CC1)C(F)(F)F)c1ccccc1 [Compound 70] | I (“I” indicates >500) | G (“G” indicates 1-100) | 0.01 to 0.1 µM |  | 110 to 300 nm/s | 310 to 500 nm/s |
| CC[C@@H](NC(=O)N1C(=O)[C@H](Cc2ccnc(N)c2)[C@H]1C(=O)N(C)c1cc(Cl)cc(Cl)c1)C1CCCCC1 [Compound 51] |  |  | < 0.01 µM |  | ≤ 100 nm/s | ≤ 100 nm/s |
| CN(C(=O)[C@@H]1[C@@H](Cc2ccnc(N)c2)C(=O)N1C(=O)N[C@H](C1CCCCC1)C1CC1)c1ccccc1 [Compound 45] |  |  | < 0.01 µM |  |  |  |

Reference: US20190315711A1 (eXIthera Pharmaceuticals, Inc., priority 2016, published 2019)
